Test results: patent US8278282B2, “Nucleoside analogs for treatment of viral infections” (Novartis AG, priority 2007, dated 2012)
pEC50: −log10 of the molar value.

Assays:
[1] = test system: dengue virus serotype 2; test: microbe, parasite or virus in culture; assay type: cell-based
[2] = test system: dengue virus serotype 1; test: microbe, parasite or virus in culture; assay type: cell-based
[3] = test system: dengue virus serotype 4; test: microbe, parasite or virus in culture; assay type: cell-based
[4] = test system: yellow fever virus; test: microbe, parasite or virus in culture; assay type: cell-based
[5] = test system: West Nile virus; test: microbe, parasite or virus in culture; assay type: cell-based
[6] = test system: Japanese encephalitis virus; test: microbe, parasite or virus in culture; assay type: cell-based
[7] = test system: HCV replicon; test: Cell-based HCV replicon assay; conditions: Hepatitis C virus
[8] = test system: TSV01 dengue virus 2; test: Mouse model of dengue infection (viremia by plaque assay); conditions: 25 mg/kg bid, compared to the control group

Structure (SMILES) | pEC50 [1] | pEC50 [2] | pEC50 [3] | pEC50 [4] | pEC50 [5] | pEC50 [6] | pEC50 [7] | reduction in viremia [8]
C#Cc1cn([C@@H]2O[C@H](CO)[C@@H](O)[C@]2(O)C#C)c2ncnc(N)c12 [Example 8, (2R,3R,4R,5R)-2-(4-Amino-5-ethynyl-pyrrolo[2,3-d]pyrimidin-7-yl)-3-ethynyl-5-hydroxymethyl-tetrahydro-furan-3,4-diol] | ~6.22 | – | – | – | – | – | – | –
C#C[C@@]1(O)[C@H](O)[C@@H](CO)O[C@H]1n1cc(F)c2c(N)ncnc21 [Example 4, (2R,3R,4R,5R)-2-(4-Amino-5-fluoro-pyrrolo[2,3-d]pyrimidin-7-yl)-3-ethynyl-5-hydroxymethyl-tetrahydrofuran-3,4-diol] | ~6.40 | – | – | – | – | – | – | –
C#C[C@@]1(O)[C@H](O)[C@@H](CO)O[C@H]1n1ccc2c(N)ncnc21 [Example 1, (2R,3R,4R,5R)-2-(4-Amino-pyrrolo[2,3-d]pyrimidin-7-yl)-3-ethynyl-5-hydroxymethyl-tetrahydrofuran-3,4-diol] | – | ~6.70 | ~6.70 | ~6.05 | ~5.43 | ~5.89 | ~7.00 | about 20 fold
